Laboratory results taken from US12077503B2, “Substituted cyclic amides and their use as herbicides” (FMC CORPORATION, priority 2015, dated 2024).

How the values were obtained:
Format in all cases: in vivo
[1] = system: pigweed (Amaranthus retroflexus); assay: Test A preemergence; conditions: Amaranthus retroflexus, pre-emergence, 240 h; for pest or weed control at 125 g/ha: 125 g ai/ha, Preemergence, visual injury rating after approximately 10 d, read-out: Pigweed plant response rating (0 to 100 scale, 0 is no effect, 100 is complete control); for pest or weed control at 500 g/ha: 500 g ai/ha, preemergence, visual injury rating about 10 d after treatment, 0 to 100 scale (0 no effect, 100 complete control), read-out: Pigweed plant response rating
[2] = system: ragweed (common ragweed, Ambrosia elatior); assay: Test A preemergence; conditions: Ambrosia artemisiifolia, pre-emergence, 240 h; for pest or weed control at 125 g/ha: 125 g ai/ha, Preemergence, visual injury rating after approximately 10 d, read-out: Ragweed plant response rating (0 to 100 scale, 0 is no effect, 100 is complete control); for pest or weed control at 500 g/ha: 500 g ai/ha, preemergence, visual injury rating about 10 d after treatment, 0 to 100 scale (0 no effect, 100 complete control), read-out: Ragweed plant response rating
Procedure, shortened: (§1)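 Compounds were formulated in a non-phytotoxic solvent mixture with surfactant and applied as a preemergence directed soil spray after seeding, or sprayed postemergence over plants 2 to 10 cm tall at the one- to two-leaf stage. Evaluation after about 10 d compared treated with untreated controls, using a scale from 0 (no effect) to 100 (complete control).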

[3] = system: giant foxtail (Setaria faberii); assay: Test A preemergence; conditions: Setaria faberi, pre-emergence, 240 h; for pest or weed control at 125 g/ha: 125 g ai/ha, Preemergence, visual injury rating after approximately 10 d, read-out: Foxtail, Giant plant response rating (0 to 100 scale, 0 is no effect, 100 is complete control); for pest or weed control at 500 g/ha: 500 g ai/ha, preemergence, visual injury rating about 10 d after treatment, 0 to 100 scale (0 no effect, 100 complete control), read-out: Foxtail, Giant plant response rating
Procedure, shortened: as §1

[4] = system: Kochia (Kochia scoparia); assay: Test A preemergence; conditions: Bassia scoparia, pre-emergence, 240 h; for pest or weed control at 125 g/ha: 125 g ai/ha, Preemergence, visual injury rating after approximately 10 d, read-out: Kochia plant response rating (0 to 100 scale, 0 is no effect, 100 is complete control); for pest or weed control at 500 g/ha: 500 g ai/ha, preemergence, visual injury rating about 10 d after treatment, 0 to 100 scale (0 no effect, 100 complete control), read-out: Kochia plant response rating
Procedure, shortened: as §1

[5] = system: ryegrass, Italian (Italian ryegrass, Lolium multiflorum); assay: Test A preemergence; conditions: Lolium multiflorum, pre-emergence, 240 h; for pest or weed control at 125 g/ha: 125 g ai/ha, Preemergence, visual injury rating after approximately 10 d, read-out: Ryegrass, Italian plant response rating (0 to 100 scale, 0 is no effect, 100 is complete control); for pest or weed control at 500 g/ha: 500 g ai/ha, preemergence, visual injury rating about 10 d after treatment, 0 to 100 scale (0 no effect, 100 complete control), read-out: Ryegrass, Italian plant response rating
Procedure, shortened: as §1

[6] = system: barnyardgrass (Echinochloa crus-galli); assay: Test A preemergence; conditions: Echinochloa crus-galli, pre-emergence, 240 h; for pest or weed control at 125 g/ha: 125 g ai/ha, Preemergence, visual injury rating after approximately 10 d, read-out: Barnyardgrass plant response rating (0 to 100 scale, 0 is no effect, 100 is complete control); for pest or weed control at 500 g/ha: 500 g ai/ha, preemergence, visual injury rating about 10 d after treatment, 0 to 100 scale (0 no effect, 100 complete control), read-out: Barnyardgrass plant response rating
Procedure, shortened: as §1

[7] = system: pigweed (Amaranthus retroflexus); assay: Test A postemergence; conditions: Amaranthus retroflexus, post-emergence, 240 h, read-out: Plant response rating, Pigweed; for pest or weed control at 125 g/ha: 125 g ai/ha, Postemergence, visual injury after approximately 10 d, 0 to 100 scale where 0 is no effect and 100 is complete control; for pest or weed control at 500 g/ha: 500 g ai/ha, postemergence, visual injury, 0 to 100 scale (0 no effect, 100 complete control), approx. 10 d
Procedure, shortened: as §1

[8] = system: ragweed (common ragweed, Ambrosia elatior); assay: Test A postemergence; conditions: Ambrosia artemisiifolia, post-emergence, 240 h, read-out: Plant response rating, Ragweed; for pest or weed control at 125 g/ha: 125 g ai/ha, Postemergence, visual injury after approximately 10 d, 0 to 100 scale where 0 is no effect and 100 is complete control; for pest or weed control at 500 g/ha: 500 g ai/ha, postemergence, visual injury, 0 to 100 scale (0 no effect, 100 complete control), approx. 10 d
Procedure, shortened: as §1

[9] = system: giant foxtail (Setaria faberii); assay: Test A postemergence; conditions: Setaria faberi, post-emergence, 240 h, read-out: Plant response rating, Foxtail, Giant; for pest or weed control at 125 g/ha: 125 g ai/ha, Postemergence, visual injury after approximately 10 d, 0 to 100 scale where 0 is no effect and 100 is complete control; for pest or weed control at 500 g/ha: 500 g ai/ha, postemergence, visual injury, 0 to 100 scale (0 no effect, 100 complete control), approx. 10 d
Procedure, shortened: as §1

[10] = system: Kochia (Kochia scoparia); assay: Test A postemergence; conditions: Bassia scoparia, post-emergence, 240 h, read-out: Plant response rating, Kochia; for pest or weed control at 125 g/ha: 125 g ai/ha, Postemergence, visual injury after approximately 10 d, 0 to 100 scale where 0 is no effect and 100 is complete control; for pest or weed control at 500 g/ha: 500 g ai/ha, postemergence, visual injury, 0 to 100 scale (0 no effect, 100 complete control), approx. 10 d
Procedure, shortened: as §1

[11] = system: wheat (Triticum aestivum); assay: Test A postemergence; conditions: Triticum aestivum, post-emergence, 240 h, read-out: Plant response rating, Wheat; for plant injury at 125 g/ha: 125 g ai/ha, Postemergence, visual injury after approximately 10 d, 0 to 100 scale where 0 is no effect and 100 is complete control; for plant injury at 500 g/ha: 500 g ai/ha, postemergence, visual injury, 0 to 100 scale (0 no effect, 100 complete control), approx. 10 d
Procedure, shortened: as §1

[12] = system: ryegrass, Italian (Italian ryegrass, Lolium multiflorum); assay: Test A postemergence; conditions: Lolium multiflorum, post-emergence, 240 h, read-out: Plant response rating, Ryegrass, Italian; for pest or weed control at 125 g/ha: 125 g ai/ha, Postemergence, visual injury after approximately 10 d, 0 to 100 scale where 0 is no effect and 100 is complete control; for pest or weed control at 500 g/ha: 500 g ai/ha, postemergence, visual injury, 0 to 100 scale (0 no effect, 100 complete control), approx. 10 d
Procedure, shortened: as §1

[13] = system: blackgrass (Alopecurus myosuroides); assay: Test A postemergence; conditions: Alopecurus myosuroides, post-emergence, 240 h, read-out: Plant response rating, Blackgrass; for pest or weed control at 125 g/ha: 125 g ai/ha, Postemergence, visual injury after approximately 10 d, 0 to 100 scale where 0 is no effect and 100 is complete control; for pest or weed control at 500 g/ha: 500 g ai/ha, postemergence, visual injury, 0 to 100 scale (0 no effect, 100 complete control), approx. 10 d
Procedure, shortened: as §1

[14] = system: corn (Zea mays); assay: Test A postemergence; conditions: Zea mays, post-emergence, 240 h; for Corn plant response rating (crop injury, 0 = no effect, 100 = complete kill) at 125 g/ha: 125 g ai/ha, Postemergence, visual injury after approximately 10 d, 0 to 100 scale where 0 is no effect and 100 is complete control; for Corn plant response rating (crop injury, 0 = no effect, 100 = complete kill) at 500 g/ha: 500 g ai/ha, postemergence, visual injury, 0 to 100 scale (0 no effect, 100 complete control), approx. 10 d
Procedure, shortened: as §1

[15] = system: barnyardgrass (Echinochloa crus-galli); assay: Test A postemergence; conditions: Echinochloa crus-galli, post-emergence, 240 h, read-out: Plant response rating, Barnyardgrass; for pest or weed control at 125 g/ha: 125 g ai/ha, Postemergence, visual injury after approximately 10 d, 0 to 100 scale where 0 is no effect and 100 is complete control; for pest or weed control at 500 g/ha: 500 g ai/ha, postemergence, visual injury, 0 to 100 scale (0 no effect, 100 complete control), approx. 10 d
Procedure, shortened: as §1

[16] = system: Galium (catchweed bedstraw, Galium aparine); assay: Test A postemergence; conditions: Galium, post-emergence, 240 h, read-out: Plant response rating, Galium; for pest or weed control at 125 g/ha: 125 g ai/ha, Postemergence, visual injury after approximately 10 d, 0 to 100 scale where 0 is no effect and 100 is complete control; for pest or weed control at 500 g/ha: 500 g ai/ha, postemergence, visual injury, 0 to 100 scale (0 no effect, 100 complete control), approx. 10 d
Procedure, shortened: as §1

[17] = system: rice (Oryra sativa); assay: Test B flooded paddy test; conditions: Oryza sativa, 250 g ai/ha, Flood; 0 to 100 scale where 0 is no effect and 100 is complete control; read-out: Rice plant response rating
Procedure, shortened: (§2)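 2-leaf plants; pots flooded 3 cm over soil; cpd added to paddy water; depth held; greenhouse 13–15 d; visual rating vs controls, 0 = no effect, 100 = complete control.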

[18] = system: sedge, umbrella (small-flower umbrella sedge, Cyperus difformis); assay: Test B flooded paddy test; conditions: Cyperus difformis, 250 g ai/ha, Flood; 0 to 100 scale where 0 is no effect and 100 is complete control; read-out: Sedge, Umbrella plant response rating
Procedure, shortened: as §2

[19] = system: ducksalad (Heteranthera limosa); assay: Test B flooded paddy test; conditions: Heteranthera limosa, 250 g ai/ha, Flood; 0 to 100 scale where 0 is no effect and 100 is complete control; read-out: Ducksalad plant response rating
Procedure, shortened: as §2

[20] = system: barnyardgrass (Echinochloa crus-galli); assay: Test B flooded paddy test; conditions: Echinochloa crus-galli, 250 g ai/ha, Flood; 0 to 100 scale where 0 is no effect and 100 is complete control; read-out: Barnyardgrass plant response rating
Procedure, shortened: as §2

SMILES	pest or weed control at 125 g/ha [1] [%]	pest or weed control at 500 g/ha [1] [%]	pest or weed control at 125 g/ha [2] [%]	pest or weed control at 500 g/ha [2] [%]	pest or weed control at 125 g/ha [3] [%]	pest or weed control at 500 g/ha [3] [%]	pest or weed control at 125 g/ha [4] [%]	pest or weed control at 500 g/ha [4] [%]	pest or weed control at 125 g/ha [5] [%]	pest or weed control at 500 g/ha [5] [%]	pest or weed control at 125 g/ha [6] [%]	pest or weed control at 500 g/ha [6] [%]	pest or weed control at 125 g/ha [7] [%]	pest or weed control at 500 g/ha [7] [%]	pest or weed control at 125 g/ha [8] [%]	pest or weed control at 500 g/ha [8] [%]	pest or weed control at 125 g/ha [9] [%]	pest or weed control at 500 g/ha [9] [%]	pest or weed control at 125 g/ha [10] [%]	pest or weed control at 500 g/ha [10] [%]	also measured
Cc1cc([C@H]2CN(C)C(=O)[C@@H]2C(=O)Nc2ccccc2F)cc(C)c1Br [Compound 1023]	30	30	0	40	90	90	0	0	50	70	90	90	0	30	0	0	70	90	50	50	plant injury at 125 g/ha [11]: 0%; plant injury at 500 g/ha [11]: 20%; pest or weed control at 125 g/ha [12]: 30%; pest or weed control at 500 g/ha [12]: 30%; pest or weed control at 125 g/ha [13]: 0%; pest or weed control at 500 g/ha [13]: 20%; Corn plant response rating (crop injury, 0 = no effect, 100 = complete kill) at 125 g/ha [14]: 0%; Corn plant response rating (crop injury, 0 = no effect, 100 = complete kill) at 500 g/ha [14]: 50%; pest or weed control at 125 g/ha [15]: 90%; pest or weed control at 500 g/ha [15]: 90%; pest or weed control at 125 g/ha [16]: 60%; pest or weed control at 500 g/ha [16]: 60%; pest or weed control at 250 g/ha [17]: 20%; pest or weed control at 250 g/ha [18]: 0%; pest or weed control at 250 g/ha [19]: 65%; pest or weed control at 250 g/ha [20]: 40%
CSc1ccccc1NC(=O)[C@H]1C(=O)N(C)C[C@@H]1c1cc(C)c(Br)c(C)c1 [Compound 1025]	0	50	0	0	90	90	0	20	0	30	70	70	0	30	0	0	60	60	30	50	plant injury at 125 g/ha [11]: 0%; plant injury at 500 g/ha [11]: 0%; pest or weed control at 125 g/ha [12]: 0%; pest or weed control at 500 g/ha [12]: 30%; pest or weed control at 125 g/ha [13]: 0%; pest or weed control at 500 g/ha [13]: 0%; Corn plant response rating (crop injury, 0 = no effect, 100 = complete kill) at 125 g/ha [14]: 0%; Corn plant response rating (crop injury, 0 = no effect, 100 = complete kill) at 500 g/ha [14]: 20%; pest or weed control at 125 g/ha [15]: 60%; pest or weed control at 500 g/ha [15]: 70%; pest or weed control at 125 g/ha [16]: 30%; pest or weed control at 500 g/ha [16]: 30%; pest or weed control at 250 g/ha [17]: 0%; pest or weed control at 250 g/ha [18]: 0%; pest or weed control at 250 g/ha [19]: 0%; pest or weed control at 250 g/ha [20]: 0%
